Source: US20090221702A1, “COMPOUNDS” (priority 2005, published 2009)
“Also recorded” adds a separate entry of the source.

Experiments:
Format in all cases: cell-based
[1] = biological target: T1, PKB (Mus musculus, UniProt P31750); assay: Western blotting of the phospho-Akt content (FIG. 5); details: NIH3T3 cells, method as for FIG. 2
T1 construct: endogenous in cells; host or cells: NIH3T3
Description: (§1) In a typical method, NIH3T3 cells were grown in media (GibcoBRL) containing 10% NCS to near confluency in six well plates. The cells were starved using 0.5% serum for 2-3 days. The media was then removed and replaced with serum free media for 15 minutes. Subsequently, 1% NCS was added to reaction wells, and 0%, 1% and 10% NCS to control wells. After 20 minutes incubation, the compound was added, and the wells incubated for a further 15 minutes. Media was removed and sample buffer was added and the cells lysed, boiled, centrifuged.
(§2) Samples were subjected to gel electrophoresis by 10% SDS-PAGE and then Western blotted on to PVDF membrane (Biorad) according to standard protocols. Western blots were probed using primary antibodies against PKB purchased from New England Biolabs and secondary antibodies of goat anti-rabbit IgG coupled to horseradish peroxidase (Amersham). The membranes were then developed using a freshly prepared ECL solution according to standard protocols.
Western blotting of the phospho-Akt content was also monitored. The methodology used was the same as above.

[2] = test system: PKB; assay: Immunofluorescence microscopy with phospho-specific Ser473 PKB antibody in NIH 3T3 or Cos6 fibroblasts; details: for phosphorylation of PKB on S473 by compound alone: 10 min, starved Cos6 cells, without any serum
Description: We therefore tested the compound's effect on PKB S473 phosphorylation by immunofluorescence microscopy with a phospho-specific PKB antibody.
(§3) NIH 3T3 of Cos6 fibroblasts growing on PLL coated coverslips in DMEM containing 10% FCS were starved for 24 hours. Stimulation with c48/80 [10 μg/ml] was always carried out in the presence of 1% FCS for 10 min. Whereas cells growing in DMEM completely depleted of serum were used for experiments with cQ [15 μg/ml]. Where indicated, cells were pretreated with 100 μM LY294002 for 30 min or 500 nM RV001 for 15 min. After treatment cells were washed with PBS, fixed with 4% PFA and permeabilised with 0.25% Triton-X/PBS and washed extensively. After blocking in 1% BSA, cells were phalloidin stained and/or incubated with phospho-specific Ser473 PKB antibody (Cell Signalling) at 4° C. over night and a Fluorescein (FITC)—conjugated goat anti-mouse IgG (Jackson Immuno Research) at room temperature for 1 h. Nuclei were stained with Dapi. Coverslips were mounted on Mowiol containing slides and sealed before analysing on a Nikon Microscope.

[3] = test system: NIH3T3 fibroblasts; assay: MTT assay; details: 50 μM
From the text: However its inhibitory effects on stimulated cells were not as strong. The methods used were as for Example 2.

[4] = biological target: T1, PKB; assay: Western blot monitoring PKB modulation in NIH3T3 cells (FIG. 2); details: 1% NCS, various concentrations, 15 minutes
Description: PKB is a protein downstream effector of PI3K, and becomes phosphorylated on (residues required for its activity) in response to the activation of PI3K. Natal Calf Serum (NCS) is a stimulator of PI3K and thus subsequently results in PKB activation. Therefore the positive control used in experiments is 10% serum and a negative control used is provided with no serum at all.
as §1, §2

[5] = test system: Cos6 fibroblasts; assay: Phalloidin staining of F-actin / actin remodelling in starved Cos6 fibroblasts; details: for insulin-stimulated actin remodelling: 15 μg/ml cQ and 5 μg/ml insulin
Description: as §3

T1 sequence (P31750 whole entry): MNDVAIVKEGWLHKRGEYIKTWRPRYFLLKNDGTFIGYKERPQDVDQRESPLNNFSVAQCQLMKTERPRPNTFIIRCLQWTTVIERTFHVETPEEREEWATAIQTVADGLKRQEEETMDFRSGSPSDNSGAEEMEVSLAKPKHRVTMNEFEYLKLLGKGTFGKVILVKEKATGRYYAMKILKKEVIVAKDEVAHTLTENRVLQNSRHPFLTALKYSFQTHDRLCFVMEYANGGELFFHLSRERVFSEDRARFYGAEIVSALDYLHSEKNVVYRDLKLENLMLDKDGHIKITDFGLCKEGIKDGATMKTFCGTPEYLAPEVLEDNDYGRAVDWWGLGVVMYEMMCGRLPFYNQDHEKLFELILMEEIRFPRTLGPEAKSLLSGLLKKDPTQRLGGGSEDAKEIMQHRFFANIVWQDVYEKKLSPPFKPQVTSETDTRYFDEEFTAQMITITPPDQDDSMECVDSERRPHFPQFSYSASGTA

Structure (SMILES) | activation of PKB (phospho-Akt content, western blots, FIG. 5) [1] | Akt/PKB phosphorylation in starved cells ([2]; 1 μM, starved cells) | inhibitory effects on Akt/PKB phosphorylation in stimulated cells ([2]; 1 μM, stimulated cells, compared with 50 μM) | Akt/PKB phosphorylation in Insulin stimulated cells ([2]; 50 μM, Insulin stimulated cells) | response with PTEN inhibition (increased PI(3,4,5)P3 levels) ([2]; 50 μM, PTEN inhibition) | S473 phosphorylation with PI3-kinase inhibition ([2]; 50 μM, Wortmannin or LY294002) | Akt/PKB phosphorylation on S473 in starved cells ([2]; 50 μM, starved cells) | cytotoxicity (MTT assay) [3] | effect on PKB (phosphorylation of PKB, western blots, FIG. 2) [4] | insulin-stimulated actin remodelling ([5]; 10 min) | insulin-stimulated actin remodelling ([5]; 10 min, listed as cQ) | stress fibers in starved fibroblasts ([5]; 15 μg/ml, 10 min, starved Cos6) | cytoskeleton reorganisation, dependence on PI3-kinase ([5]; 15 μg/ml, preincubation with 100 μM LY294002 for 30 min, listed as cQ) | F-actin organisation after treatment ([5]; 15 μg/ml, starved Cos6) | PKB activation with PTEN inhibitor RV001 (increased PI(3,4,5)P3 levels) ([2]; 15 μg/ml cQ, 500 nM RV001 pretreatment, 0.2 μg/ml insulin, listed as cQ) | compound-induced PKB phosphorylation after PI3-kinase inhibition ([2]; 15 μg/ml cQ, 30 min preincubation with 100 μM LY294002, listed as cQ) | effect of pretreatment on activation of PKB by serum ([2]; 15 μg/ml, 10% FCS, starved cells) | phosphorylation of PKB on S473 by compound alone ([2]; 15 μg/ml) | phosphorylation of PKB on S473 by compound alone ([2]; 15 μg/ml, listed as cQ) | effect of serum on compound-induced PKB activation ([2]; increasing concentrations of serum)
Oc1ccc(CCCl)cc1Cc1cc(CCCl)ccc1O [Compound C, 3,3′-Methylenebis[1-(2-chloroethyl)-4-hydroxybenzene]] | can activate PKB | still activatory on its own | not as strong | inhibitory on Akt/PKB phosphorylation | inhibited the response | increase of phosphorylation at this site | activate Akt/PKB phosphorylation on S473 | cytotoxic effects |  |  |  |  |  |  |  |  |  |  |  | 
COc1c(CO)cc(C)cc1CO [Compound F, 2,6-Bis(hydroxymethyl)-4-anisole] | can activate PKB |  |  |  |  |  |  |  | activators |  |  |  |  |  |  |  |  |  |  | 
Oc1ccc(CCCl)cc1 [Compound Q] | can activate PKB |  |  |  |  |  |  |  |  | inhibits insulin-stimulated actin remodelling | counteract insulin-stimulated actin remodelling; also recorded: interferes with insulin-stimulated stress fiber breakdown | induces the loss of stress fibers in starved fibroblasts | capable of reorganising the cytoskeleton independent of PI3-kinase | produces a disorganised cytoplasmic F-actin and an actin ring juxtaposed to the plasma membrane | indirectly inhibits PKB activation after cQ challenge; also recorded: inhibited PI(3,4,5)P3 mediated PKB activation | strongly increased cQ induced PKB phosphorylation; also recorded: increased cQ induced PKB phosphorylation | completely abolished the activation of PKB by 10% FCS | induces phosphorylation of PKB | sufficient to induce phosphorylation of PKB on S473 residue | increasing concentrations of serum inhibit cQ induced PKB activation
